Some test systems named below: LXFL 529 NSCLC; DMS 114 small cell lung; MDA-N; SNB-78 CNS; DMS 273 small cell lung; XF 498 CNS; HOP-18 NSCLC; M19-MEL melanoma; RXF-631 renal.
Assay in all cases: NCI anticancer screen, dose series, 48 h

Experimental findings from PubChem BioAssay (NCI) are described below.

The structures appear in SMILES notation.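 Following 48 hours of exposure in 96-well plates, responses at five concentrations were used to interpolate endpoints linearly. GI50 = concentration required for 50% inhibition of growth. TGI marks complete inhibition of growth.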

With `CC(C)(C)c1nc2c(o1)C(=Nc1ccc(F)cc1)c1ccccc1C2=O`, the TGI in the assay on LXFL 529 NSCLC is greater than 100 µM; with DMS 114 small cell lung, 7.81 µM; with MDA-N it was 5.35 µM; with SNB-78 CNS it was greater than 100 µM; in the assay on DMS 273 small cell lung it was 10.5 µM; in the assay with XF 498 CNS, 3.94 µM. In addition, the TGI in the assay with HOP-18 NSCLC was determined as 28.8 µM; with M19-MEL melanoma, 3.08 µM.

In turn, `Cn1c(N)nc2c(nc(OCc3ccccc3)n2C2OC(CO)C(O)C2O)c1=O` (stereo not given) registered a TGI in the assay on MDA-N greater than 100 µM.

In the assay on MDA-N, `CCCCCC(C(O)C#N)C(O)(C(F)(F)F)C(F)(F)F` (stereo not given) gave a TGI greater than 10 µM.

The compound `COc1ccc2c(c1)[C@@]13CCN4CC5=CCO[C@H]6CC(=O)N2[C@H]1[C@H]6[C@H]5C[C@H]43` had a TGI in the assay on MDA-N greater than 100 µM.

Take `CC/C=C\C/C=C\C1CC(=O)NCCCNCCCCN1` (stereo not given): the TGI in the assay on LXFL 529 NSCLC, in the assay on DMS 114 small cell lung, in the assay with SNB-78 CNS, in the assay on DMS 273 small cell lung and in the assay with M19-MEL melanoma was greater than 100 µM throughout.

With `c1cc[c]([Sn]([S]c2cccc3cccnc23)([c]2ccccc2)[c]2ccccc2)cc1`, the GI50 in the assay on LXFL 529 NSCLC is 0.0209 µM; in the assay on SNB-78 CNS, 0.0203 µM; in the assay on RXF-631 renal, 0.0256 µM; in the assay with DMS 273 small cell lung, 0.0173 µM; with XF 498 CNS, 0.0241 µM; with HOP-18 NSCLC, 0.0784 µM. The TGI with LXFL 529 NSCLC was 0.0548 µM; in the assay on SNB-78 CNS, 0.0659 µM; in the assay with RXF-631 renal, 0.0804 µM; in the assay with DMS 273 small cell lung, 0.0344 µM; in the assay on XF 498 CNS, 0.0524 µM; with HOP-18 NSCLC, 0.214 µM. Besides, the TGI in the assay on M19-MEL melanoma was 0.172 µM.

As to `COc1ccc(C2=NC(C)(C)CO2)cc1`, the TGI in the assay with DMS 114 small cell lung, in the assay on SNB-78 CNS, in the assay on DMS 273 small cell lung, in the assay on XF 498 CNS, in the assay with HOP-18 NSCLC and in the assay with M19-MEL melanoma was greater than 100 µM throughout.

Turning to `Clc1ccc(CNc2nc3ccccc3nc2-c2cccs2)c(Cl)c1`, the TGI in the assay on LXFL 529 NSCLC, with SNB-78 CNS, in the assay on RXF-631 renal, in the assay on DMS 273 small cell lung, in the assay on XF 498 CNS and with HOP-18 NSCLC was greater than 100 µM throughout. The TGI in the assay with M19-MEL melanoma was greater than 100 µM.

`CCOc1cccc2nc3cccc(C(=O)NCCN(C)C)c3nc12`: the TGI in the assay on LXFL 529 NSCLC is greater than 21.9 µM; in the assay with DMS 114 small cell lung it was 3.7 µM; with SNB-78 CNS, 9.3 µM; with RXF-631 renal it was 10.5 µM; with DMS 273 small cell lung it was greater than 100 µM; in the assay on XF 498 CNS, 3.52 µM. Also, the figures for the TGI in the assay with HOP-18 NSCLC and with M19-MEL melanoma were greater than 38.4 µM and 2.83 µM, respectively.

For the compound `Clc1cc(Cl)c2c(Cl)cc(Cl)c3c2c1N=S=N3`, the TGI in the assay on LXFL 529 NSCLC was greater than 100 µM; in the assay with DMS 114 small cell lung it was greater than 100 µM; with SNB-78 CNS, greater than 100 µM; in the assay with DMS 273 small cell lung it was greater than 100 µM; in the assay with XF 498 CNS it was 49 µM; in the assay on HOP-18 NSCLC, greater than 100 µM. The compound also registered a TGI with M19-MEL melanoma greater than 100 µM.

As to `CCOC(=O)Cc1nc(/C(C#N)=C/c2ccco2)[nH]c(=O)c1C#N`, the TGI is greater than 100 µM with LXFL 529 NSCLC; 93.9 µM in the assay on SNB-78 CNS; greater than 100 µM in the assay with DMS 273 small cell lung; greater than 100 µM in the assay with HOP-18 NSCLC; greater than 100 µM with M19-MEL melanoma.

With `COc1ccc(C2C(N)=NCC2c2ccccn2)cc1` (stereo not given), the TGI in the assay on LXFL 529 NSCLC was greater than 100 µM; in the assay with DMS 114 small cell lung, greater than 100 µM; in the assay on SNB-78 CNS, greater than 100 µM; in the assay on RXF-631 renal it was greater than 100 µM; in the assay on XF 498 CNS, greater than 100 µM; in the assay with HOP-18 NSCLC, 97.9 µM. This compound displayed a TGI with M19-MEL melanoma greater than 100 µM.

As for `Oc1c2c(c(O)c3ccccc13)=N[C@@H](c1ccccc1)[C@H](c1ccccc1)N=2`, the TGI with LXFL 529 NSCLC, in the assay on DMS 114 small cell lung, in the assay on SNB-78 CNS, in the assay on DMS 273 small cell lung, with XF 498 CNS and in the assay with M19-MEL melanoma was greater than 100 µM throughout.

With `COc1ccc2c(-c3cc4ccccc4o3)cc(=O)oc2c1`, the TGI with LXFL 529 NSCLC is greater than 100 µM; in the assay with MDA-N it was greater than 100 µM; with SNB-78 CNS, greater than 100 µM; in the assay with RXF-631 renal it was greater than 100 µM; in the assay with DMS 273 small cell lung, greater than 100 µM; in the assay with XF 498 CNS it was 45 µM. Moreover, the TGI with HOP-18 NSCLC and with M19-MEL melanoma was greater than 100 µM each time.

Consider `CC1(C)CCc2cc3c(cc2O1)OCCC3=O`, for which the TGI with LXFL 529 NSCLC, with DMS 114 small cell lung, with RXF-631 renal, in the assay with XF 498 CNS, with HOP-18 NSCLC and with M19-MEL melanoma was greater than 100 µM throughout.

For `CN(C)C(=S)/N=c1\ss/c(=N\S(=O)(=O)c2ccccc2)n1-c1ccccc1`, the TGI in the assay with DMS 114 small cell lung was 50.3 µM; with SNB-78 CNS, greater than 100 µM; with RXF-631 renal it was greater than 100 µM; in the assay with DMS 273 small cell lung, greater than 100 µM; with XF 498 CNS it was 79.4 µM; in the assay with HOP-18 NSCLC it was greater than 100 µM. Also, the TGI in the assay on M19-MEL melanoma was greater than 100 µM.

In the case of `C[C@H]1CCC/C=C/[C@@H]2C[C@H](N)C[C@H]2[C@H](O)/C=C/C(=O)O1`, in the assay with MDA-N, the GI50 was greater than 100 µM and the TGI is greater than 100 µM.

`CC(O)CN1C(=O)NC(Cc2ccccc2)C1=O` (stereo not given): the TGI with LXFL 529 NSCLC, in the assay on DMS 114 small cell lung, in the assay with SNB-78 CNS, with DMS 273 small cell lung, in the assay on XF 498 CNS and with HOP-18 NSCLC was greater than 100 µM throughout.

Take `Cc1c(-c2nc(N)nc(C3CC3)c2C)nc(N)nc1C1CC1`: the TGI in the assay with MDA-N is greater than 100 µM.
